Source: patent publication US20220127297A1, “Novel Antibacterial 3"-Derivatives Of 4,6-Disubstituted 2,5-Dideoxystreptamine Aminoglycoside Antibiotics” (AGILeBiotics B.V., priority 2018, published 2022)
Converted amounts (≈) assume the structure as drawn.

Experiments:
E. coli (APH(3′)Ia) = experiment: MIC 50, broth micro-dilution, E. coli expressing APH(3′)Ia; type: cell-based, Escherichia coli
Method: Plasmid transformation. Approximately 500 ng of the pET-9b(+) (Cat. No. 69432-3, Merck), pAT21-1 (provided by Prof. Dr. Patrice Courvalin, M.D., Pasteur Institute, France; prepared according to Trieu-Cuot et. al, Mol. Gen. Genet. 198(2), 348 (1985)), pBluescript::AAC(6′)-Ie/APH(2″)-Ia (provided by Prof. Dr. Sergei Vakulenko, M.D., University of Notre Dame, Ind., USA; prepared according to S. B. Vakulenko et. al., J. Biol. Chem. 287 (52), 43262 (2012)), pBlue_lpp_aacC3_rrnC and pSET152 (Cat. No. PVT3395, Life Science Market; prepared according to Bierman et al., Gene 116 (1), 43 (1992)) plasmids, encoding APH(3′)-Ia (SEQ ID NO:2), APH(3′)-IIIa (SEQ ID NO:3), AAC(6′)Ie-APH(2″)-Ia (SEQ ID NO:4), AAC(3)-III (SEQ ID NO:1), and AAC(3)-IV (SEQ ID NO:5) respectively, were individually incubated in a vial of competent cells for 15 min on ice. The cells were subsequently heated to 42° C. for 90 s, and cooled on ice for 1 min. After addition of 900 μL LB, the cells were incubated for 1 h at 37° C. and 200 rpm. Cells were plated on LB-agar supplemented with 50 μg/mL KanaA and incubated for 18 h at 37° C. The next day, a single colony was inoculated in 5 mL LB supplemented with 50 μg/mL and grown for 18 h at 37° C. and 200 rpm. A 200 μL sample of each culture was diluted with 200 μL of 40% v/v glycerol in water, and stored at −80° C. The plasmid was purified from the remaining culture using the Plasmid Miniprep kit. Plasmid DNA was investigated by Eurofins Genomics (Germany) to confirm the identity of the aminoglycoside resistance genes.
(§1) 3.1 Against E. coli Strains
(§2) Tested reference compounds. Amikacin sulfate (Cat. No. 01693, Chem-Impex), Gentamicin sulfate (Cat. No. G4918, Sigma Aldrich).
(§3) Microbial strains. E. coli ATCC 25922, E. coli ATCC 25922/pET-9b(+), E. coli ATCC 25922/pAT21-1, E. coli ATCC 25922/pBluescript::AAC(6′)-Ie/APH(2″)-Ia, E. coli ATCC 25922/pBlue_lpp_aacC3_rrnC, E. coli ATCC 25922/pSET152.
(§4) Culture media and equipment. BBL™ Mueller Hinton Broth 2 (Lot. BCBW1143, Cat. No. 70192, Sigma); Kanamycin A (Cat. No. A1493, AppliChem); 96-well deep well plate, 1 mL (Cat. No. 0030506.200, Eppendorf); Plate lids (Cat. No. 0030131.525, Eppendorf); 96-well plate, F-bottom (Cat. No. 781602, Brand; Incubator, Infors Multitron Pro); Laminar flow (Heraeus KS12); UV/VIS meter (Eppendorf BioPhotometer Plus); Platereader (Tecan Sunrise).
(§5) Compound preparation. Compounds were prepared in MH2 media at a concentration of 5 mM and stored at 4° C. For testing, solutions of 128 μM were prepared in MH2. Out of these working solutions, 400 μL was transferred to wells in the first column of 96-well deep well plates. Each compound was transferred in triplicate. Plates were previously filled with 200 μL of MH2 media in all wells except for the wells in the first column. After compound and antibiotic addition, the compounds were serial two-fold diluted by transferring 200 μL from the first to the second column, then from the second to the third column and so on. Finally, 200 μL was removed from the last column.
(§6) Inoculum preparation. Microorganisms used were all revived from 20% glycerol (40% v/v glycerol in water was diluted with MH2) storage at −80° C. by inoculating them in 5 mL MH2. inoculums of E. coli containing a plasmid were selected for by adding 50 μg/mL KanaA. The Inoculums were grown to an optical density (measured by UV/Vis spectroscopy) of 0.6-0.8 at 600 nm. Out of these suspensions, actual inoculums were prepared by diluting them to an optical density (OD) of 0.1 in MH2 media. From these inoculums, 200 μL was transferred to each well, resulting in a final compound concentration range of 64 μM-31.3 nM. All plates were incubated at 900 rpm and 70% rH for 18 h at 37° C.
MIC determination. After 18 h of growth, 200 μL was transferred to a 96-well F-bottom plate. The optical density was determined by a plate reader at 600 nm, with 10 s shaking before reading. Triplicate measurements were averaged, and a growth curve was plotted in Microsoft Excel. […]

E. coli ATCC25922 strain = experiment: MIC 50, broth micro-dilution, wild-type Escherichia coli; type: cell-based; conditions: MH2, 18 h
Description: as §1, §2, §3, §4, §5, §6
MIC determination. After 18 h of growth, 200 μL was transferred to a 96-well F-bottom plate. The optical density was determined by a plate reader at 600 nm, with 10 s shaking before reading. Triplicate measurements were averaged, and a growth curve was plotted in Microsoft Excel. The first column in which the growth reached half the value of maximum growth was determined as the MIC50 value for that particular compound.
MIC50. The MIC50 of a compound was assigned at which the bacterial growth reached half the value of maximum growth.

[1] = Escherichia coli, ATCC25922, ATCC25922 harboring plasmid encoding APH(3′)Ia
[2] = Escherichia coli, ATCC25922, 18 h
[3] = ATCC25922 harboring plasmid encoding APH(3′)Ia

Compound | MIC50 (E. coli (APH(3′)Ia); [1]) [µM] | MIC50 (E. coli ATCC25922 strain; [2]) [µM] | MIC50 (E. coli (APH(3′)Ia); [3]) [µM] | MIC50 (E. coli ATCC25922 strain) [µM]
CNCCNC(=N)NC1[C@@H](O)C(OC2[C@@H](F)[C@H](O[C@H]3OC(CN)[C@@H](O)CC3N)C(N)C[C@H]2NC(=O)[C@@H](O)CCN)O[C@H](CO)[C@H]1O (stereo partly drawn) [ABX5038, Tobra-AHB-F-Gua 2-(methylamino)ethyl] | 0.5 (≈ 0.335 µg/mL) | 0.25 (≈ 0.167 µg/mL) | – | –
N=C(N)NC1[C@@H](O)C(OC2[C@@H](F)[C@H](O[C@H]3OC(CN)[C@@H](O)[C@H](O)C3N)C(N)C[C@H]2NC(=O)[C@@H](O)CCN)O[C@H](CO)[C@H]1O (stereo partly drawn) [ABX4006, KanaB-AHB-F-Gua] | – | – | 1 to 2 | –
N=C(NCC1CCCO1)NC1[C@@H](O)C(OC2[C@@H](F)[C@H](O[C@H]3OC(CN)[C@@H](O)CC3N)C(N)C[C@H]2NC(=O)[C@@H](O)CCN)O[C@H](CO)[C@H]1O (stereo partly drawn) [ABX5046, Tobra-AHB-F-Gua tetrahydrofuran-2-yl methyl] | 1 (≈ 0.697 µg/mL) | 0.5 (≈ 0.348 µg/mL) | – | –
N=C(NC[C@@H]1CNCCO1)NC1[C@@H](O)C(OC2[C@@H](F)[C@H](O[C@H]3OC(CN)[C@@H](O)CC3N)C(N)C[C@H]2NC(=O)[C@@H](O)CCN)O[C@H](CO)[C@H]1O (stereo partly drawn) [ABX5040, Tobra-AHB-F-Gua (S) morpholin-2-yl methyl] | 1 (≈ 0.712 µg/mL) | 0.5 (≈ 0.356 µg/mL) | – | –
N=C(N)N[C@@H]1[C@@H](O)[C@@H](O[C@@H]2[C@@H](O)[C@H](O[C@H]3O[C@H](CN)[C@@H](O)[C@@H](O)[C@H]3N)[C@@H](N)C[C@H]2NC(=O)[C@@H](O)CCN)O[C@H](CO)[C@H]1O [ABX4005, 3′Epi-KanaB-AHB-Gua] | – | – | 16 (≈ 10 µg/mL) | 4 (≈ 2.51 µg/mL)
NCCC(O)C(=O)NC1CC(N)C(OC2OC(CN)C(O)C(O)C2N)C(O)C1OC1OC(CO)C(O)C(N)C1O (stereo not drawn) [ABX4001, KanaB-AHB] | – | – | 8 (≈ 4.68 µg/mL) | 2 (≈ 1.17 µg/mL)
N=C(NCc1cnc[nH]1)NC1[C@@H](O)C(OC2[C@@H](F)[C@H](O[C@H]3OC(CN)[C@@H](O)CC3N)C(N)C[C@H]2NC(=O)[C@@H](O)CCN)O[C@H](CO)[C@H]1O (stereo partly drawn) [ABX5050, Tobra-AHB-F-Gua imidazol-5-yl methyl] | 2 (≈ 1.39 µg/mL) | 1 (≈ 0.693 µg/mL) | – | –
N=C(NCCCO)NC1[C@@H](O)C(OC2[C@@H](F)[C@H](O[C@H]3OC(CN)[C@@H](O)CC3N)C(N)C[C@H]2NC(=O)[C@@H](O)CCN)O[C@H](CO)[C@H]1O (stereo partly drawn) [ABX5041, Tobra-AHB-F-Gua 3-hydroxy-propyl] | 1 (≈ 0.671 µg/mL) | 0.5 (≈ 0.335 µg/mL) | – | –
N=C(N)NC1[C@@H](O)C(OC2[C@@H](F)[C@H](O[C@H]3OC(CN)[C@@H](O)[C@H](O)C3O)C(N)C[C@H]2NC(=O)[C@@H](O)CCN)O[C@H](CO)[C@H]1O (stereo partly drawn) [ABX3003, 3′epi-KanaA-AHB-F-Gua] | 8 (≈ 5.04 µg/mL) | 2 (≈ 1.26 µg/mL) | – | –
NCC[C@H](O)C(=O)N[C@@H]1CC(N)[C@@H](O[C@H]2OC(CN)[C@@H](O)[C@@H](O)C2N)[C@H](F)C1OC1O[C@H](CO)[C@@H](O)C(N)[C@H]1O (stereo partly drawn) [ABX4003, 3′Epi-KanaB-AHB-F] | – | – | 8 to 16 | 4 to 8
N=C(NCCCN)NC1[C@@H](O)C(OC2[C@@H](F)[C@H](O[C@H]3OC(CN)[C@@H](O)CC3N)C(N)C[C@H]2NC(=O)[C@@H](O)CCN)O[C@H](CO)[C@H]1O (stereo partly drawn) [ABX5030, Tobra-AHB-F-Gua-3-amino-propyl] | 2 (≈ 1.34 µg/mL) | 0.25 (≈ 0.167 µg/mL) | – | –
